This passage reports IC50, Ki and inhibition results from ChEMBL document CHEMBL2163249, “Exploration of natural compounds as sources of new bifunctional scaffolds targeting cholinesterases and beta amyloid aggregation: the case of chelerythrine” (Bioorg Med Chem, 2012).

Assay [1] deals with Cholinesterase (Equus caballus, UniProt P81908). Kind of assay: Inhibition of horse BChE by Ellman's method. The conditions noted are these: read-out: IC50.
Assay [2] addresses Cholinesterase (Homo sapiens, UniProt P06276). Kind of assay: Inhibition of human BChE by Ellman's method. The conditions noted are these: read-out: IC50.
For assay [3], the target named is T1, Acetylcholinesterase (Electrophorus electricus, UniProt O42275). Kind of assay: Inhibition of electric eel AChE by Ellman's method. The conditions noted are these: read-out: IC50.
T1 sequence (O42275 whole entry): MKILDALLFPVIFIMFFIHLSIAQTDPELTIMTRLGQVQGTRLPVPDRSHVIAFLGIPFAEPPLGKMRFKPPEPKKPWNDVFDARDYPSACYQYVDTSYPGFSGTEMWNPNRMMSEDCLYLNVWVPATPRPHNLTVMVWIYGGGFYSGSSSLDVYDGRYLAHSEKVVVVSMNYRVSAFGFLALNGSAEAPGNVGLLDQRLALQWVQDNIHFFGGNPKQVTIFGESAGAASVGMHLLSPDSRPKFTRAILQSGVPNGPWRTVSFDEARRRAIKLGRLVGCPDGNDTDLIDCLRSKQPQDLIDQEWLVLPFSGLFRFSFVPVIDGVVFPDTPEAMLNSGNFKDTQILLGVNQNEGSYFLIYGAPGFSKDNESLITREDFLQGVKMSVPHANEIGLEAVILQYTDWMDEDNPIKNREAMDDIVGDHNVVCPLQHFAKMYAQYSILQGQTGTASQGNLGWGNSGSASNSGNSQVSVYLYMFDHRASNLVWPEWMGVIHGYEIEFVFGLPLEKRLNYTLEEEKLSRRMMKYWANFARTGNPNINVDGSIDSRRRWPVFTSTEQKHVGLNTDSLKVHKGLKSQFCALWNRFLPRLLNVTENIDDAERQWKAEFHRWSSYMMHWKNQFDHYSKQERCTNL
Assay [4] deals with T1, Acetylcholinesterase. Kind of assay: Competitive inhibition of electric eel AChE using acetyl thiocholine iodide as substrate by Lineweaver-Burk double-reciprocal analysis.
Assay [5] deals with T1, Acetylcholinesterase. Description: Uncompetitive inhibition of electric eel AChE using acetyl thiocholine iodide as substrate by Lineweaver-Burk double-reciprocal analysis.
The target in assay [6] is T2, Acetylcholinesterase (Homo sapiens, UniProt P22303). Description: Competitive inhibition of human AChE using acetyl thiocholine iodide as substrate by Lineweaver-Burk double-reciprocal analysis.
T2 sequence (P22303 whole entry): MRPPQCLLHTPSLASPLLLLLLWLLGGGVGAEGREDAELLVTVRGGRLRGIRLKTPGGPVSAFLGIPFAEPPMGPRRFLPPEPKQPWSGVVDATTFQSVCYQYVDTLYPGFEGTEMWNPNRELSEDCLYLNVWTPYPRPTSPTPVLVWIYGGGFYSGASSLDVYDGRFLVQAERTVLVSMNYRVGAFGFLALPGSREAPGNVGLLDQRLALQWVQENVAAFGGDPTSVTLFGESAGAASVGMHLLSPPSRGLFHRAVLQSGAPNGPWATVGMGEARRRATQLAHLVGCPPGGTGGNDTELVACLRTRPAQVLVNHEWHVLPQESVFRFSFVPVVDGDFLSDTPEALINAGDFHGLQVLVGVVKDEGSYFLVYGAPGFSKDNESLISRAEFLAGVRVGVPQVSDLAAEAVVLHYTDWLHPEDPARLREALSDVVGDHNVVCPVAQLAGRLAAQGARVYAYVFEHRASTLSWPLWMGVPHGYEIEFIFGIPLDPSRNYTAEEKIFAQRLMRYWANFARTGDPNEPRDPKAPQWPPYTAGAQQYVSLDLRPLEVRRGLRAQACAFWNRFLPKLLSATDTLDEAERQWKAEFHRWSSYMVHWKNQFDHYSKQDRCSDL
In assay [7] the target is T2, Acetylcholinesterase. Description: Uncompetitive inhibition of human AChE using acetyl thiocholine iodide as substrate by Lineweaver-Burk double-reciprocal analysis.
The nature of assay [8]: Inhibition of HFIP-induced amyloid beta (1 to 40) aggregation after 45 mins by thioflavin T fluorescence method.
Assay [9] can be described thus: Inhibition of HFIP-induced amyloid beta (1 to 40) aggregation at 10 uM after 45 mins by thioflavin T fluorescence method.
Assay [10] can be described thus: Inhibition of amyloid beta (1 to 40) aggregation assessed as induction of disaggregation treated 45 mins after formation of aggregates by thioflavin T fluorescence method.
Assay [11] concerns the target T2, Acetylcholinesterase.
Description: Inhibition of human AChE by Ellman's method
For assay [12], the target named is Acetylcholinesterase (Electrophorus electricus) (UniProt O42275). The conditions noted are these: at 2 mg/mL.
Chain of Acetylcholinesterase (Electrophorus electricus) (O42275 24-633 limits assumed): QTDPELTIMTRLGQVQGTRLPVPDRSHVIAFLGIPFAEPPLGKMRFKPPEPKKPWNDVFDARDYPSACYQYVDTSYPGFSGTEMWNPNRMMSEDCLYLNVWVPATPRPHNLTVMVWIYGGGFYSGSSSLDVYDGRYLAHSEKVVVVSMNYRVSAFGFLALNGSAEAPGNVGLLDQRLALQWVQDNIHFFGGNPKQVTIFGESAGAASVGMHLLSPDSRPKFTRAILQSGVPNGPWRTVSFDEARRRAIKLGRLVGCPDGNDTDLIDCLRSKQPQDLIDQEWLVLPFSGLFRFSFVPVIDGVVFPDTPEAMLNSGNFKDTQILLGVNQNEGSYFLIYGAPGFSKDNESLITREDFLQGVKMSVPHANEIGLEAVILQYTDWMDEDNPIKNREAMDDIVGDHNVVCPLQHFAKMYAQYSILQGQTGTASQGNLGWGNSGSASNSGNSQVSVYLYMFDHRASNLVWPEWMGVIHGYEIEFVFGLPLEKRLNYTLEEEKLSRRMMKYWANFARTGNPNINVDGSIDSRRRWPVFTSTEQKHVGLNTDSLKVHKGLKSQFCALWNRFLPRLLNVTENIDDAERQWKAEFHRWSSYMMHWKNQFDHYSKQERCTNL
Description: Inhibition of electric eel AChE at 2 mg/ml by Ellman's method
Assay [13] has as its target Cholinesterase (Equus caballus) (UniProt P81908). The note with it: at 2 mg/mL.
Description: Inhibition of horse BChE at 2 mg/ml by Ellman's method

A word on the IC50: it is the concentration that gives 50% inhibition. In general, Ki refers to the equilibrium dissociation constant of an inhibitor or competing ligand from its target. A low value points to higher affinity. The inhibition is the change of the read-out against control, counted positive when it falls. The low end stands for a response near the control, the high end for a response far below the control.

Chain of Cholinesterase (Equus caballus) (P81908 whole entry): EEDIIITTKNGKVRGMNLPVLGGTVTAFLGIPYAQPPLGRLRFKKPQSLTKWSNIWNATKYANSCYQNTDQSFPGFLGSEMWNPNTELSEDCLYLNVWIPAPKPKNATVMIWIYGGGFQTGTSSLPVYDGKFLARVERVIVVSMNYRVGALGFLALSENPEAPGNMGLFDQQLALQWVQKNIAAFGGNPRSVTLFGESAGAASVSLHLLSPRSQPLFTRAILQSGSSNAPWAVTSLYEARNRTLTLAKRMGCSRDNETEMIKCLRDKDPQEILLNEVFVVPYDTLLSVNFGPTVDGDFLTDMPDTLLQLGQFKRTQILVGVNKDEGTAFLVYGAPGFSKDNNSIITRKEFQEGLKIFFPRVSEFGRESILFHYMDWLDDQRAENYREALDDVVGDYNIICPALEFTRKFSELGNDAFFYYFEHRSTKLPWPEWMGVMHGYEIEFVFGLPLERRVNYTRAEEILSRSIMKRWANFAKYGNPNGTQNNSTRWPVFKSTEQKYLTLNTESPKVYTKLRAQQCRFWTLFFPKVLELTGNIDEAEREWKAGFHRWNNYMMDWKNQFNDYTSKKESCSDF
Chain of Cholinesterase (Equus caballus, UniProt P81908) (P81908 whole entry): as above
Chain of Cholinesterase (Homo sapiens, UniProt P06276) (P06276 whole entry): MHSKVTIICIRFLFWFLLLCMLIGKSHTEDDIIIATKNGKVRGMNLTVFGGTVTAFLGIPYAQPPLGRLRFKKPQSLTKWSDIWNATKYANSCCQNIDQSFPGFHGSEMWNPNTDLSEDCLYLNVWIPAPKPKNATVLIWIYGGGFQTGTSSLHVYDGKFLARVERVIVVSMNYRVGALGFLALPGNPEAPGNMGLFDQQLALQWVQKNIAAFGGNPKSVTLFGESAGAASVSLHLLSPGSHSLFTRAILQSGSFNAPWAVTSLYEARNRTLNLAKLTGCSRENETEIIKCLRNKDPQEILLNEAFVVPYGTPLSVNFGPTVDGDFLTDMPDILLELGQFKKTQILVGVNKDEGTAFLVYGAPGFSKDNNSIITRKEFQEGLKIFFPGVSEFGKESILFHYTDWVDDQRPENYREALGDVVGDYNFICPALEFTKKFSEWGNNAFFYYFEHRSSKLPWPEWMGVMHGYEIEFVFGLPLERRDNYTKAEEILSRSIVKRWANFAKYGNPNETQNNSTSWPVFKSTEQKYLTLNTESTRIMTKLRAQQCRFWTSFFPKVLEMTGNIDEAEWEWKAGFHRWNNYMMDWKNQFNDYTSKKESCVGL

With `COc1ccc2c(c[n+](C)c3c4cc5c(cc4ccc23)OCO5)c1OC` [CHELERYTHRINE CHLORIDE], the 50% inhibitory concentration (IC50) was 6330 nM on Cholinesterase [1]; 10300 nM at Cholinesterase [2]; 3780 nM on Acetylcholinesterase [3]; 4200 nM in assay [8]; 13000 nM in [10]; 1540 nM against Acetylcholinesterase [11]. Moreover, the Ki on Acetylcholinesterase [4] turned out to be 480 nM; at Acetylcholinesterase [5], 920 nM; on Acetylcholinesterase [6] it was 320 nM; on Acetylcholinesterase [7], 1120 nM. Also, the inhibition in assay [9] stood at 67%; in [12] it was 75.9%; in assay [13] it was 83.5%.
